# Molecular target: NAT Noradrenergic Transporter (Rattus norvegicus, UniProt Q9WTR4)
# Experiment: Measurements of [3H]noradrenaline uptake into rat cortical synaptosomes
# Format: biochemical
# Description: Transporter Inhibition Assays
# Measurements of [^3H]Noradrenaline Uptake into Rat Cortical Synaptosomes
# The homogenate is centrifuged at 1000×g for 10 min at 4° C. The pellet is discarded and the supernatant is centrifuged at 40.000×g for 20 min. […] Pellet is suspended in 140 volumes of assaybuffer. Tissue is mixed with test compounds and after 10 min pre-incubation, 10 nM [^3H]-noradrenaline is added to a final volume of 0.2 ml and the mixture is incubated for 15 min at 37° C. After 15 min incubation, samples are filtered directly on Unifilter GF/C glass fiber filters (soaked for 30 min in 0.1% polyethylenimine) under vacuum and immediately washed with 1×0.2 mL assay buffer.
# Non-specific uptake is determined using talsupram (10 μM final concentration). Duloxetine is included as reference in all experiments as dose-response curve.
# Chain of NAT Noradrenergic Transporter (Q9WTR4 6-550 limits assumed): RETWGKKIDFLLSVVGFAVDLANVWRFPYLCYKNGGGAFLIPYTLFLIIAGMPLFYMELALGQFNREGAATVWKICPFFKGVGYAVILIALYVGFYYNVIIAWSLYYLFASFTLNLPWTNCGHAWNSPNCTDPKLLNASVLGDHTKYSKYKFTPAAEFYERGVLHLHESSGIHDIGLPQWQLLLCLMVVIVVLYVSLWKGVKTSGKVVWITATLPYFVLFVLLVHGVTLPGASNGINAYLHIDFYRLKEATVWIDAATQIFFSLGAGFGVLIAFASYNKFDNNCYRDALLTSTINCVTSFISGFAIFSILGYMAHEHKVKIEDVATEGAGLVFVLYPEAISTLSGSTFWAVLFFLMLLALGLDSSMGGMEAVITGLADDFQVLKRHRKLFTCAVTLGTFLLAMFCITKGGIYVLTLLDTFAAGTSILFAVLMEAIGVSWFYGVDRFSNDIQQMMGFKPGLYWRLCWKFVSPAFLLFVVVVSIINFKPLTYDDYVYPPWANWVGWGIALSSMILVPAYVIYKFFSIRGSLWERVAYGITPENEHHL
row,Structure (SMILES),IC50
1,CN[C@@H]1C[C@@H](c2c[nH]c3ccccc23)c2ccccc21 [Formula IX],0.1 to 200 nM
2,CN[C@@H]1C[C@@H](c2c[nH]c3ccc(Cl)cc23)c2ccccc21 [Formula VIII],0.1 to 200 nM
3,CN[C@@H]1C[C@@H](c2c[nH]c3cc(OC)ccc23)c2ccccc21 [Formula X],0.1 to 200 nM
